Laboratory results as given in patent US12084680B2, “Methods for efficient derivation of human motor neurons from diverse spinal regions” (Wisconsin Alumni Research Foundation, priority 2016, dated 2024).

Key:
H9 ishcat2 hESC line = experiment: Doxycycline-inducible shRNA knockdown of β-catenin (CTNNB1) during motor neuron differentiation; format: cell-based, human; settings: H9 ishcat2, 3 days shRNA CTNNB1 knockdown upstream of CHIR 4 μM, day 3
Protocol: In the ventral neural tube, SHH signaling generates OLIG2^+ motor neuron progenitors that subsequently mature into post-mitotic ISL1^+ and/or HB9^+ motor neurons. To probe the role of Wnt/β-catenin signaling during this process in vitro, we utilized the H9 ishcat2 hESC line, which harbors a doxycycline-inducible shRNA against CTNNB1.
Similarly, we induced β-catenin knockdown while differentiating the hESCs into motor neurons via E6 neural induction with RA (1 μM), purmorphamine (PM, a small molecule agonist of sonic hedgehog signaling; 100 nM), and neurotrophic factor treatment, as previously described (FIG. 3A).
NKX6.1 is the earliest expressed marker in the motor neuron development cascade in vivo, so we examined its expression in response to Wnt/β-catenin, RA, and SHH signaling during hPSC motor neuron differentiation. H9 hESCs were differentiated in E6 medium for 2 days to initiate neural fate acquisition34 and then treated with combinations of RA, purmorphamine (PM, a small molecule agonist of SHH signaling), and CHIR for 24 h (FIG. 4A). […] Using the H9 ishcat2 line, we observed that CHIR-mediated induction of NKX6.1 was β-catenin-dependent, as the optimal 3 days of shRNA-mediated CTNNB1 knockdown upstream of CHIR treatment was required to maximally reduce NKX6.1 induction to 44±1% (FIG. 4E). The correlation between NKX6.1 knockdown and days of doxycycline treatment was presumably due to the time delay for shRNA synthesis and subsequent gene knockdown in Tet-on systems. […] Exogenously added WNT3A (200 ng/mL) could also induce NKX6.1 expression (60±14%) (FIG. 4G), providing further evidence for the involvement of Wnt/β-catenin signaling in this process. In contrast, simultaneous treatment with CHIR and BMP4 (200 ng/mL), a dorsal patterning factor, reduced the expression of NKX6.1 from 91±1% to 68±2% (FIG. 4H).
hESCs were maintained on Matrigel (BD Biosciences) in E8 medium but with 10-fold lower insulin concentration (2 mg/L). Cell lines used in this study were H9 hESCs (passage 25-45) and H9 ishcat2 hESCs (passage 35-45). […]

H9 hESCs = experiment: OLIG2 induction in thoracic and lumbar neuroectoderm at various day 5 reseed densities; format: cell-based, human; settings: for PAX6+/OLIG2+ cells: reseed 1.5×10^5 cells/cm^2
Source text: However, OLIG2 induction was less efficient upon employing the standard deterministic HOX patterning protocol to generate thoracic and lumbar neuromesoderm followed by a CHIR boost and application of RA and SHH/PM (FIG. 6A). Only 11±2% and 67±9% of the cells in the thoracic and lumbar cultures, respectively, were PAX6^+/OLIG2^+ (FIGS. 6B-6C). We noted that our standard neuromesodermal protocol always used a reseed density of 1.5×10^5 cells/cm^2, which generates a relatively confluent but not tightly packed cell monolayer 24 h after seeding. Having previously determined that cell density and cell-cell contacts can serve as modulators of neural fate, we explored the effects of seeding density on OLIG2 induction.
hESCs were dissociated with accutase (Thermo Fisher Scientific) and reseeded at 1×10^5 cells/cm2 in E8 medium containing 10 μM ROCK inhibitor (Y27632; R&D Systems) on 6-well polystyrene tissue culture plates coated with 100 μg/mL poly-L-ornithine (PLO; Sigma) and 8 μg/well VTN-NC. The timelines and relevant growth factors/small molecules for all differentiation procedures are described in detail in the Results section and its accompanying figures. Cells were differentiated for various amounts of time in E6 medium containing the same insulin concentration as E8 medium as described above with varying combinations of soluble factors (product information and concentration ranges are found in Table 2). For neuromesodermal induction and HOX propagation, cells were sequentially cultured with FGF8b, CHIR99021 (CHIR), GDF11, and dorsomorphin (DM) as previously described. Briefly, to initiate the neuromesodermal state, cells were changed to E6 medium followed by addition of FGF8b (200 ng/ml) 24 h later. To generate cervical neuromesodermal progenitors, cells were washed with PBS, treated with accutase, and re-seeded in E6 medium containing 200 ng/ml FGF8b, 3 μM CHIR, and 10 μM Y27632 on VTN-NC-coated plates at a density of 1.5×10^5 cells/cm^2 for 48 h. To generate thoracic neuromesodermal progenitors, cells were passaged again after 72 h of CHIR treatment and re-seeded at different densities as described in the text.
Thoracic identity was reached after an additional 24 h. Then, to reach the lumbosacral level, cells were given 30 ng/ml GDF11 and 1 μM DM for an additional 48 h. For neuroectoderm induction and generation of OLIG2^+ progenitors, FGF8b was removed at the designated time points and the concentration of CHIR was increased for 6 h as described in the text, followed by a transition to media containing RA, PM, and SHH for a period of 48 h. For differentiation of the OLIG2^+ progenitors to motor neurons, cells were subcultured by en bloc passage using a cell scraper, reseeded at a 1:200 ratio in Matrigel-coated 8-well chamber slides, and differentiated for 14 days in E6 medium containing 1 μM RA, 100 nM PM, and 100 ng/mL SHH, with media exchange every 3 days (10 μM Y27632 was included during the en bloc passaging step and removed after the first media exchange). For differentiation of lumbar cultures, 1 μM DM was included in all steps. For the myoblast co-culture experiments, OLIG2^+ cultures were en bloc passaged, frozen in E6 medium containing 10% DMSO, shipped to a different location, and thawed 1:10 in 6-well plates under the same conditions as described in FIG. 5. To facilitate neuronal maturation prior to myoblast co-culture, 5 μM DAPT (Tocris) was added from days 8-14 post-thaw. Flow cytometry, RT-PCR, and qPCR (RPS18 and CTNNB1 Taqman primers from Thermo Fisher Scientific) were conducted as previously described.

## Cc1c[nH]c(-c2cnc(NCCNc3ccc(C#N)cn3)nc2-c2ccc(Cl)cc2Cl)n1 [CHIR, CHIR99021]
H9 ishcat2 hESC line
  NKX6.1 induction (flow cytometry): 44±1%
H9 hESCs; lumbar culture, CHIR boost then RA and SHH/PM
  PAX6+/OLIG2+ cells: 67±9%
H9 hESCs; lumbar neuroectoderm, reseed 4×10^5 cells/cm^2, with dorsomorphin, CHIR boost then RA and SHH/PM
  OLIG2+ cells: 82±3%
H9 hESCs; thoracic culture, CHIR boost then RA and SHH/PM
  PAX6+/OLIG2+ cells: 11±2%
H9 hESCs; thoracic neuroectoderm, day 5 reseed 1×10^5 cells/cm^2, CHIR boost then RA and SHH/PM
  OLIG2+ cells: 19±5%
H9 hESCs; thoracic neuroectoderm, day 5 reseed 2×10^5 cells/cm^2, CHIR boost then RA and SHH/PM
  OLIG2+ cells: 48±3%
H9 hESCs; thoracic neuroectoderm, day 5 reseed 4×10^5 cells/cm^2, CHIR boost then RA and SHH/PM
  OLIG2+ cells: 80±3%
